Patent publication US10383938B2 (priority 2010, dated 2019)

Experiments:
[1] = test system: systemic tumor necrosis factor (TNF); test: Systemic TNF induction in vivo after subcutaneous injection (Example 4); conditions: mice
Experimental: The resiquimod preparation was made as an aqueous suspension in PBS.
At one hour and at three hours post dose, the mice were bled and systemic TNF was measured in the serum (pg/mL) by ELISA assay. The results are presented as the geometric means obtained for each group of five animals. […] This can be important in providing localized immune system enhancement without systemic TNF side effects.

[2] = test system: human peripheral mononuclear cells (PBMC); test: TNF production in human PBMC (Example 7); type: cell-based; conditions: for TNF: human PBMC, overnight at 37° C., ELISA
Experimental: The human peripheral blood mononuclear cells were prepared from human volunteers and placed in culture in 96 well microtiter plates. […] The cells were then incubated overnight at 37° C. The medium was removed and TNF concentration (ng/mL) was measured by ELISA assay (Table 6).

[3] = test system: interferon-gamma (IFNgamma); set-up: species or system mice; conditions: mouse, in vivo
TNF protein = test: Local in vivo activity: serum TNF protein by ELISA (Example 11); set-up: species or system Balb/c male mice; conditions: s.c. 1.0 mg/kg, mean (s.d.) of 4 mice, not detected = less than 10 pg/ml
Experimental: (§1) The final dose for either compound was 1.0 mg/kg. At each time point, the mice were bled, sacrificed, and the draining axial and brachial lymph nodes were removed and placed in RNA preservation fluid (RNA later reagent obtained from Ambion Corporation, Austin, Tex.). Serum samples were analyzed for TNF protein concentration (pg/ml) by ELISA as a measure of systemic presence of this cytokine. The draining lymph nodes were processed for measurement of TNF mRNA gene expression by quantitative PCR (7900HT Thermocycler obtained from Applied Biosystems, Carlsbad, Calif.). The data reported (Table 10) is the mean+/−standard deviation (s.d.) for each group. The “not detected” level for serum TNF concentration was less than 10 pg/ml.

TNF mRNA = test: Local in vivo activity: TNF mRNA gene expression in draining lymph nodes by quantitative PCR (Example 11); set-up: species or system Balb/c male mice; conditions: s.c. 1.0 mg/kg; for TNF mRNA Gene Expression in Lymph Nodes [fold increase versus control (s.d.)]: draining axial and brachial lymph nodes
Experimental: as §1

| SMILES | In Vitro Challenge of Isolated Spleenocytes, IFNgamma, Control PBS Challenge [3] | In Vitro Challenge of Isolated Spleenocytes, IFNgamma, HA Antigen Challenge [3] | Serum TNF [pg/ml (s.d.)] (TNF protein; 1 hour post dose) | Serum TNF [pg/ml (s.d.)] (TNF protein; 3 hours post dose) | Serum TNF [pg/ml (s.d.)] (TNF protein; 6 hours post dose) | TNF mRNA Gene Expression in Lymph Nodes [fold increase versus control (s.d.)] (TNF mRNA; 1 hour post dose) | TNF mRNA Gene Expression in Lymph Nodes [fold increase versus control (s.d.)] (TNF mRNA; 3 hours post dose) | TNF mRNA Gene Expression in Lymph Nodes [fold increase versus control (s.d.)] (TNF mRNA; 6 hours post dose) | TNF mRNA Gene Expression in Lymph Nodes [fold increase versus control (s.d.)] (TNF mRNA; 18 hours post dose) | other results |
| --- | --- | --- | --- | --- | --- | --- | --- | --- | --- | --- |
| CCCCCCCCCCCCCCCCCC(=O)NCCCCOn1c(CCCC)nc2c(N)nc3ccccc3c21 [N-(4-{[4-amino-2-butyl-1H-imidazo[4,5-c]quinolin-1-yl]oxy}butyl)octadecanamide] | 4.82 pg/mL | 293.51 pg/mL | not detected | not detected | not detected | 0.65 (0.04) fold increase versus control | 1.62 (1.23) fold increase versus control | 7.23 (2.07) fold increase versus control | 1.55 (0.28) fold increase versus control | systemic TNF response (in words) ([1]; subcutaneous injection, 1 mg/Kg, summary of Table 3): does not induce a systemic TNF response; TNF ([2]; 0.014 μM): 0.13 ng/mL; TNF ([2]; 0.043 μM): 0.17 ng/mL; TNF ([2]; 0.13 μM): 0.35 ng/mL; TNF ([2]; 0.37 μM): 2.51 ng/mL; TNF ([2]; 1.1 μM): 7.07 ng/mL; TNF ([2]; 3.3 μM): 28.73 ng/mL; TNF ([2]; 10 μM): 31.46 ng/mL; TNF ([2]; 30 μM): 29.47 ng/mL; induction of TNF-α production (in words) ([2]; summary statement, "as described above"): induce the production of TNF-α; Serum TNF [pg/ml (s.d.)] (TNF protein; 18 hours post dose): not detected; cytokine induction effects, local versus systemic (in words) (TNF mRNA; TNF mRNA induced in draining lymph nodes without TNF protein in serum): primarily local |
| CCOCc1nc2c(N)nc3ccccc3c2n1CC(C)(C)O [Resiquimod, resiquimod, reference compound] | 3.84 pg/mL | 91.88 pg/mL | 4082 (873) pg/ml | 107 (35) pg/ml | 18 (4) pg/ml | 14.19 (3.83) fold increase versus control | 4.82 (0.70) fold increase versus control | 1.39 (0.27) fold increase versus control | 0.90 (0.23) fold increase versus control | TNF concentration at Times Following Treatment, 1 hour ([1]; s.c. 1 mg/Kg, serum at 1 hour post dose, geometric mean of 5 animals): 1140.41 pg/mL; TNF concentration at Times Following Treatment, 3 hour ([1]; s.c. 1 mg/Kg, serum at 3 hours post dose, geometric mean of 5 animals): <5 pg/mL |
